Measurements from PubChem BioAssay (NCI).
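Step 1: Grow cells in 96-well plates. Step 2: Expose to compound for 48 hours at 5 concentrations. Step 3: Interpolate endpoints linearly; if unreached, use highest concentration. TGI is the concentration that stops growth completely.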

Legend:
Test in all cases: NCI tumour cell line growth inhibition, 48 h
[1] = system: DU-145 prostate
[2] = system: TK-10 renal
[3] = system: CCRF-CEM leukemia
[4] = system: SK-MEL-5 melanoma
[5] = system: SK-MEL-28 melanoma
[6] = system: SF-268 CNS
[7] = system: CAKI-1 renal
[8] = system: EKVX NSCLC
[9] = system: IGROV1 ovarian
[10] = system: U251 CNS
[11] = system: SR leukemia
[12] = system: NCI-H460 lung
[13] = system: COLO 205 colon
[14] = system: HCC-2998 colon
[15] = system: OVCAR-3 ovarian
[16] = system: MDA-MB-231 breast
[17] = system: NCI-H226 lung
[18] = system: OVCAR-5 ovarian
[19] = system: HCT-15 colon
[20] = system: HCT-116 colon
[21] = system: SF-539 CNS
[22] = system: HOP-92 NSCLC
[23] = system: NCI-H522 lung
[24] = system: SK-MEL-2 melanoma
[25] = system: MCF7 breast
[26] = system: KM12 colon
[27] = system: NCI/ADR-RES ovarian
[28] = system: MOLT-4 leukemia
[29] = system: MALME-3M melanoma
[30] = system: BT-549 breast
[31] = system: UACC-257 melanoma
[32] = system: UO-31 renal
[33] = system: HT29 colon
[34] = system: UACC-62 melanoma
[35] = system: SN12C renal
[36] = system: MDA-MB-435
[37] = system: PC-3 prostate
[38] = system: K-562 leukemia
[39] = system: RPMI-8226 leukemia
[40] = system: SW-620 colon
[41] = system: OVCAR-8 ovarian
[42] = system: NCI-H23 lung
[43] = system: M14 melanoma
[44] = system: SNB-19 CNS
[45] = system: ACHN renal
[46] = system: A549 NSCLC
[47] = system: HOP-62 NSCLC
[48] = system: SF-295 CNS
[49] = system: T-47D breast
[50] = system: OVCAR-4 ovarian
[51] = system: 786-0 renal
[52] = system: A498 renal
[53] = system: MDA-N
[54] = system: RXF 393 renal
[55] = system: LOX IMVI melanoma
[56] = system: SK-OV-3 ovarian
[57] = system: HS 578T breast
[58] = system: HL-60(TB) leukemia
[59] = system: SNB-75 CNS

O=c1oc2nc(-c3ccccc3)cc(C(F)(F)F)c2n1Cc1ccccc1
TGI [1]: > 100 µM | TGI [2]: > 100 µM | TGI [3]: > 26.1 µM | TGI [4]: > 100 µM | TGI [5]: > 100 µM | TGI [6]: > 100 µM | TGI [7]: > 100 µM | TGI [8]: > 100 µM | TGI [9]: > 43.5 µM | TGI [10]: > 100 µM | TGI [11]: > 100 µM | TGI [12]: > 100 µM | TGI [13]: > 100 µM | TGI [14]: > 100 µM | TGI [15]: > 100 µM | TGI [16]: > 100 µM | TGI [17]: > 100 µM | TGI [18]: > 100 µM | TGI [19]: > 100 µM | TGI [20]: > 100 µM | TGI [21]: > 100 µM | TGI [22]: > 100 µM | TGI [23]: > 100 µM | TGI [24]: > 100 µM | TGI [25]: > 100 µM | TGI [26]: > 100 µM | TGI [27]: > 60.4 µM | TGI [28]: > 100 µM | TGI [29]: 98.5 µM | TGI [30]: > 100 µM | TGI [31]: > 100 µM | TGI [32]: > 100 µM | TGI [33]: > 100 µM | TGI [34]: > 100 µM | TGI [35]: > 100 µM | TGI [36]: 3.13 µM | TGI [37]: > 100 µM | TGI [38]: > 100 µM | TGI [39]: > 30.8 µM | TGI [40]: > 100 µM | TGI [41]: > 100 µM | TGI [42]: > 59.6 µM | TGI [43]: > 82.9 µM | TGI [44]: > 100 µM | TGI [45]: > 100 µM | TGI [46]: > 100 µM | TGI [47]: > 100 µM | TGI [48]: > 100 µM | TGI [49]: > 45 µM | TGI [50]: > 100 µM | TGI [51]: > 100 µM | TGI [52]: 9.48 µM | TGI [53]: 2.68 µM | TGI [54]: > 30.3 µM | TGI [55]: > 100 µM | TGI [56]: > 100 µM | TGI [57]: > 75.3 µM

O=C1C(c2c(O)[nH]c3ccc(S(=O)(=O)O)cc23)=Nc2ccc(Br)cc21
TGI [1]: > 100 µM | TGI [2]: > 100 µM | TGI [3]: > 100 µM | TGI [4]: > 100 µM | TGI [5]: > 100 µM | TGI [6]: > 100 µM | TGI [7]: > 100 µM | TGI [8]: > 100 µM | TGI [9]: > 100 µM | TGI [10]: > 100 µM | TGI [58]: > 100 µM | TGI [11]: > 100 µM | TGI [12]: > 100 µM | TGI [13]: > 100 µM | TGI [14]: > 100 µM | TGI [15]: > 100 µM | TGI [16]: > 100 µM | TGI [17]: > 100 µM | TGI [18]: > 100 µM | TGI [19]: > 100 µM | TGI [20]: > 100 µM | TGI [22]: > 100 µM | TGI [23]: > 100 µM | TGI [24]: > 100 µM | TGI [25]: > 100 µM | TGI [59]: > 100 µM | TGI [26]: > 100 µM | TGI [27]: > 100 µM | TGI [28]: > 100 µM | TGI [29]: > 100 µM | TGI [30]: > 100 µM | TGI [31]: > 100 µM | TGI [32]: > 100 µM | TGI [33]: > 100 µM | TGI [34]: > 100 µM | TGI [35]: > 100 µM | TGI [36]: > 100 µM | TGI [37]: > 100 µM | TGI [38]: > 100 µM | TGI [39]: > 100 µM | TGI [40]: > 100 µM | TGI [41]: > 100 µM | TGI [42]: > 100 µM | TGI [43]: > 100 µM | TGI [44]: > 100 µM | TGI [45]: > 100 µM | TGI [46]: > 100 µM | TGI [47]: > 100 µM | TGI [48]: > 100 µM | TGI [49]: > 100 µM | TGI [50]: > 100 µM | TGI [51]: > 100 µM | TGI [52]: > 100 µM | TGI [53]: > 100 µM | TGI [54]: > 100 µM | TGI [55]: > 100 µM | TGI [56]: > 100 µM | TGI [57]: > 100 µM
